Measured values from US9844550B2, “Phtalazinone derivatives and manufacturing process thereof” (ILDONG PHARM CO., LTD., priority 2013, dated 2017).
pIC50: −log10 of the molar value.

tested on: MDA-MB-436 breast cancer cell line; assay: Cell viability assay (MDA-MB-436); type: cell-based; conditions: Homo sapiens, 144 h; MDA-MB-436 cells, treated 6 days
Summary of the method: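 MDA-MB-436 breast cancer cells in DMEM/F12 with 10% FBS, treated 24 h after seeding with graded compound concentrations for 6 days at 37 °C, 5% CO2, medium changed every 3 days. Viability read with a fluorescence reagent; IC50 derived.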

| Compound | pIC50 |
| --- | --- |
| CN(C)C(=O)c1cccnc1N[C@@H]1CCN(C(=O)c2cc(Cc3n[nH]c(=O)c4ccccc34)ccc2F)C1 [Compound I-129, (R)-2-((1-(2-fluoro-5-((4-oxo-3,4-dihydrophthalazin-1-yl)methyl)benzoyl)pyrrolidin-3-yl)amino)-N,N-dimethylnicotinamide] | 6.00 to 6.52 |
| O=C(c1cc(Cc2n[nH]c(=O)c3ccccc23)ccc1F)N1CC(NCc2ccccc2)C1 [Compound I-133, 4-(3-(3-(benzylamino)azetidine-1-carbonyl)-4-fluorobenzyl)phthalazin-1(2H)-one] | 6.52 to 7.30 |
| O=C(c1cc(Cc2n[nH]c(=O)c3ccccc23)ccc1F)N1CC(NCCC(F)(F)F)C1 [Compound I-134, 4-(4-fluoro-3-(3-((3,3,3-trifluoropropyl)amino)azetidine-1-carbonyl)benzyl)phthalazin-1(2H)-one] | 6.52 to 7.30 |
| O=C(c1cc(Cc2n[nH]c(=O)c3ccccc23)ccc1F)N1CC[C@@H](N2CCCC2)C1 [Compound I-136, (R)-4-(3-([1,3′-bipyrrolidine]-1′-carbonyl)-4-fluorobenzyl)phthalazin-1(2H)-one] | 7.30 to 8.30 |
| O=C(c1cc(Cc2n[nH]c(=O)c3ccccc23)ccc1F)N1CC[C@@H](N2CCCCC2)C1 [Compound I-137, (R)-4-(4-fluoro-3-(3-(piperidin-1-yl)pyrrolidine-1-carbonyl)benzyl)phthalazin-1(2H)-one] | 6.52 to 7.30 |
| Cc1ccc(N[C@@H]2CCN(C(=O)c3cc(Cc4n[nH]c(=O)c5ccccc45)ccc3F)C2)cc1 [Compound I-138, (R)-4-(4-fluoro-3-(3-(p-tolylamino)pyrrolidine-1-carbonyl)benzyl)phthalazin-1(2H)-one] | 6.00 to 6.52 |
| CC(C)NCC1CN(C(=O)c2cc(Cc3n[nH]c(=O)c4ccccc34)ccc2F)C1 [Compound I-144, 4-(4-fluoro-3-(3-((isopropylamino)methyl)azetidine-1-carbonyl)benzyl)phthalazin-1(2H)-one] | ≥ 8.30 |
| O=C(c1cc(Cc2n[nH]c(=O)c3ccccc23)ccc1F)N1CC(CNCC2CC2)C1 [Compound I-145, 4-(3-(3-(((cyclopropylmethyl)amino)methyl)azetidine-1-carbonyl)-4-fluorobenzyl)phthalazin-1(2H)-one] | 7.30 to 8.30 |
| N#CC1(CNCC2CN(C(=O)c3cc(Cc4n[nH]c(=O)c5ccccc45)ccc3F)C2)CC1 [Compound I-151, 1-((((1-(2-fluoro-5-((4-oxo-3,4-dihydrophthalazin-1-yl)methyl)benzoyl)azetidin-3-yl)methyl)amino)methyl)cyclopropanecarbonitrile] | 6.00 to 6.52 |
| C#CCN(CC1CN(C(=O)c2cc(Cc3n[nH]c(=O)c4ccccc34)ccc2F)C1)C1CC1 [Compound I-153, 4-(3-(3-((cyclopropyl(prop-2-yn-1-yl)amino)methyl)azetidine-1-carbonyl)-4-fluorobenzyl)phthalazin-1(2H)-one] | 6.00 to 6.52 |
| CN(CC1CN(C(=O)c2cc(Cc3n[nH]c(=O)c4ccccc34)ccc2F)C1)C1CC1 [Compound I-154, 4-(3-(3-((cyclopropyl(methyl)amino)methyl)azetidine-1-carbonyl)-4-fluorobenzyl)phthalazin-1(2H)-one] | 6.00 to 6.52 |
| CCN(CC1CN(C(=O)c2cc(Cc3n[nH]c(=O)c4ccccc34)ccc2F)C1)C1CC1 [Compound I-155, 4-(3-(3-((cyclopropyl(ethyl)amino)methyl)azetidine-1-carbonyl)-4-fluorobenzyl)phthalazin-1(2H)-one] | 6.52 to 7.30 |
